Active and inactive are the calls of the source. The calls are words filed in the database; no cut-off is given here.
How the values were obtained:
[1] = species on record: Homo sapiens; test: Activation of wild type N-terminal Flag-tagged E6AP (unknown origin) mediated UbxD8 substrate ubiquitination in presence of Uba1/Ubch7 at 10 to 100 uM preincubated for 30 mins followed by UB addition incubated for 2 hrs by SDS PAGE based Western blot analysis; conditions: dose 10-100 µM, time 2.5 hrs
[2] = species on record: Homo sapiens; test: Activation of wild type N-terminal Flag-tagged E6AP HECT domain (unknown origin) self-ubiquitination assessed as increase in formation of polyubiquitinated HECT in presence of wild type HA-tagged UB at 10 to 100 uM preincubated for 30 mins followed by UB addition incubated for 2 hrs by SDS PAGE based Western blot analysis; conditions: dose 10-100 µM, time 150.0 min
[3] = species on record: Homo sapiens; test: Activation of full length E6AP (unknown origin) self-ubiquitination at 100 uM preincubated for 30 mins followed by UB addition incubated for 2 hrs by SDS PAGE based Western blot analysis
[4] = Binding affinity to recombinant E6AP HECT domain (unknown origin) expressed in BL21 cells by fluorescence polarization assay; set-up: species or system Homo sapiens
[5] = species on record: Homo sapiens; test: Activation of wild type N-terminal Flag-tagged E6AP (unknown origin) mediated ubiquitination of p53 substrate at 10 to 100 uM in presence of […] E6 and Uba1/Ubch7 preincubated for 30 min followed by UB addition incubated for 2 hrs by SDS PAGE based Western blot analysis; conditions: dose 10-100 µM, time 150.0 min
[6] = test system: HEK293T; test: Activation of E6AP (unknown origin) in HEK293T cells assessed as increase in ubiquitination level of UbxD8 substrate at 25 to 50 uM preincubated for 14 hrs followed by addition of MG132 incubated for 12 hrs by SDS PAGE based Western blot analysis; type: cell-based; conditions: Homo sapiens, filed as activator, dose 25-50 µM, time 26.0 hrs
[7] = species on record: Homo sapiens; test: Activation of wild type N-terminal Flag-tagged E6AP HECT domain (unknown origin) self-ubiquitination in presence of wild type HA-tagged UB at 5 uM preincubated for 30 mins followed by UB addition incubated for 2 hrs by SDS PAGE based Western blot analysis; conditions: filed as activator, time 150.0 min
[8] = species on record: Homo sapiens; test: Activation of wild type N-terminal Flag-tagged E6AP HECT domain (unknown origin) self-ubiquitination in presence of UbcH7 at 5 uM preincubated for 30 mins followed by UB addition incubated for 2 hrs by SDS PAGE based Western blot analysis; conditions: filed as activator, time 2.5 hrs
[9] = species on record: Homo sapiens; test: Activation of E6AP (unknown origin) self-ubiquination in presence of UbcH7 at 5 uM preincubated for 30 mins followed by UB addition incubated for 2 hrs by SDS PAGE based Western blot analysis; conditions: filed as activator, time 2.5 hrs
[10] = Stability of the compound in human serum for 24 hrs by HPLC-MS analysis; type: ADME, cell-free
[11] = test system: HEK293T; test: Activation of E6AP mediated HHR23A degradation in HEK293T cells at 1 to 5 uM preincubated for 14 hrs followed by CHX addition by cycloheximide chase assay; type: cell-based; conditions: Homo sapiens, filed as activator, dose 1-5 µM
[12] = species on record: Homo sapiens; test: Activation of wild type N-terminal Flag-tagged E6AP HECT domain (unknown origin) self-ubiquitination in presence of Uba1 at 5 uM preincubated for 30 mins followed by UB addition incubated for 2 hrs by SDS PAGE based Western blot analysis; conditions: filed as activator, time 2.5 hrs
[13] = species on record: Homo sapiens; test: Activation of E6AP (unknown origin) self-ubiquination in presence of wild type HA-tagged UB at 5 uM preincubated for 30 mins followed by UB addition incubated for 2 hrs by SDS PAGE based Western blot analysis; conditions: filed as activator, time 150.0 min
[14] = test system: HEK293T; test: Activation of E6AP mediated UbxD8 degradation in HEK293T cells at 50 uM preincubated for 14 hrs followed by CHX addition by cycloheximide chase assay; type: cell-based; conditions: Homo sapiens, filed as activator
[15] = species on record: Homo sapiens; test: Activation of wild type N-terminal Flag-tagged E6AP (unknown origin) mediated HHR23A substrate ubiquitination in presence of Uba1/Ubch7 preincubated for 30 mins followed by UB addition incubated for 2 hrs by SDS PAGE based Western blot analysis; conditions: filed as activator, dose 1-100 µM, time 150.0 min
[16] = test system: HEK293T; test: Activation of E6AP (unknown origin) mediated HHR23A substrate ubiquitination in HEK293T cells at 25 to 50 uM preincubated for 14 hrs followed by addition of MG132 incubated for 12 hrs by SDS PAGE based Western blot analysis; type: cell-based; conditions: Homo sapiens, filed as activator, dose 25-50 µM, time 26.0 hrs
[17] = species on record: Homo sapiens; test: Activation of wild type N-terminal Flag-tagged E6AP (unknown origin) mediated UbxD8 substrate ubiquitination in presence of Uba1/Ubch7 preincubated for 30 mins followed by UB addition incubated for 2 hrs by SDS PAGE based Western blot analysis; conditions: filed as activator, time 2.5 hrs
[18] = species on record: Homo sapiens; test: Activation of E6AP (unknown origin) self-ubiquination in presence of Uba1 at 5 uM preincubated for 30 mins followed by UB addition incubated for 2 hrs by SDS PAGE based Western blot analysis; conditions: filed as activator, time 2.5 hrs
[19] = test system: HEK293T; test: Activation of E6AP mediated HHR23A degradation in HEK293T cells at 50 uM preincubated for 14 hrs followed by CHX addition by cycloheximide chase assay; type: cell-based; conditions: Homo sapiens, filed as activator
[20] = species on record: Homo sapiens; test: Activation of wild type N-terminal Flag-tagged E6AP (unknown origin) mediated beta-catenin substrate ubiquitination in presence of Uba1/Ubch7 preincubated for 30 mins followed by UB addition incubated for 2 hrs by SDS PAGE based Western blot analysis; conditions: filed as activator, dose 1-100 µM, time 150.0 min
[21] = Stability of the compound in ammonium bicarbonate buffer at pH 7.8 assessed as pronase (unknown origin)-mediated drug degradation for 24 hrs by HPLC-MS analysis; type: ADME; conditions: human, pH 7.8, 24 h

| Structure (SMILES) | Activity [1] | Activity [2] | Activity [3] | Kd ([4]; read-out: Kd) | Activity [5] | other results |
| --- | --- | --- | --- | --- | --- | --- |
| COc1cc(CC(=O)N2CC(=O)N[C@@H](C)CN(C(=O)Cc3cc(OC)cc(OC)c3)CC(=O)N[C@@H](CC(C)C)CN(CC(N)=O)C(=O)CCSCc3ccc(cc3)C(=O)N[C@@H](Cc3ccccc3)CN(C(=O)Cc3ccc4c(c3)OCO4)CC(=O)N[C@@H](Cc3ccccc3)C2)cc(OC)c1 | inactive | inactive | inactive | 83.4 nM | inactive |  |
| COc1cc(CC(=O)N2CC(=O)N[C@@H](Cc3ccccc3)CN(C(=O)CC3CC3)CC(=O)N[C@@H](CC(C)C)CN(CC(N)=O)C(=O)CCSCc3ccc(cc3)C(=O)N[C@@H](CCC(=O)O)CN(C(=O)Cc3ccc4c(c3)OCO4)CC(=O)N[C@@H](CC(C)C)C2)cc(OC)c1 | inactive | inactive | inactive | 162 nM | inactive |  |
| CC(C)C[C@H]1CN(CC(N)=O)C(=O)CCSCc2ccc(cc2)C(=O)N[C@@H](Cc2ccccc2)CN(C(=O)Cc2ccc3ccccc3c2)CC(=O)N[C@@H](CC(C)C)CN(C(=O)CCC2CCCCC2)CC(=O)N[C@@H](Cc2ccccc2)CN(C(=O)Cc2ccc3c(c2)OCO3)CC(=O)N1 | inactive | inactive | inactive | 82.2 nM | inactive |  |
| CC(C)C[C@H]1CN(CC(N)=O)C(=O)CCSCc2ccc(cc2)C(=O)N[C@@H](C)CN(C(=O)Cc2ccc3ccccc3c2)CC(=O)N[C@@H](CC(C)C)CN(C(=O)CCc2ccccc2)CC(=O)N[C@@H](Cc2ccccc2)CN(C(=O)Cc2ccc3c(c2)OCO3)CC(=O)N1 | inactive | inactive | inactive | 187 nM | inactive |  |
| COc1cc(CC(=O)N2CC(=O)N[C@@H](Cc3ccccc3)CN(C(=O)CC3CC3)CC(=O)N[C@@H](CC(C)C)CN(CC(N)=O)C(=O)CCSCc3ccc(cc3)C(=O)N[C@@H](CCCCN)CN(C(=O)Cc3ccc4ccccc4c3)CC(=O)N[C@@H](CC(C)C)C2)cc(OC)c1 |  |  |  | 218 nM | inactive | Activity [6]: Active; Activity [7]: Active; Activity [8]: Active; Activity [9]: Active; Stability [10]: Stable; Activity [11]: Active; Activity [12]: Active; Activity [13]: Active; Activity [14]: Active; Activity [15]: Dose-Dependent Effect; Activity ([1]; filed as activator): Active; Activity ([2]; filed as activator): Active; Activity ([3]; filed as activator): Active; Activity [16]: Active; Activity [17]: Dose-Dependent Effect; Activity [18]: Active; Activity [19]: Active; Activity [20]: Dose-Dependent Effect; Stability [21]: Stable |
| C[C@H]1CN(C(=O)CCC(=O)O)CC(=O)N[C@@H](Cc2ccccc2)CN(CC(N)=O)C(=O)CCSCc2ccc(cc2)C(=O)N[C@@H](C)CN(C(=O)Cc2ccc3c(c2)OCO3)CC(=O)N[C@@H](CCC(=O)O)CN(C(=O)CC2CC2)CC(=O)N1 | inactive | inactive | inactive |  | inactive | Kd [4]: Not Active |
| C[C@H]1CN(C(=O)Cc2ccc3c(c2)OCO3)CC(=O)N[C@@H](Cc2ccccc2)CN(C(=O)Cc2ccc3ccccc3c2)CC(=O)N[C@@H](CCC(=O)O)CN(C(=O)CC2CC2)CC(=O)N[C@@H](Cc2ccccc2)CN(CC(N)=O)C(=O)CCSCc2ccc(cc2)C(=O)N1 | inactive | inactive | inactive | 171 nM | inactive |  |
| CC(C)C[C@H]1CN(C(=O)Cc2ccc3c(c2)OCO3)CC(=O)N[C@@H](CCC(=O)O)CN(C(=O)CCC2CCCCC2)CC(=O)N[C@@H](C)CN(C(=O)CCC(=O)O)CC(=O)N[C@@H](Cc2ccccc2)CN(CC(N)=O)C(=O)CCSCc2ccc(cc2)C(=O)N1 | inactive | inactive | inactive |  | inactive | Kd [4]: Not Active |

Reference: ChEMBL document CHEMBL5042525, “Activation of E6AP/UBE3A-Mediated Protein Ubiquitination and Degradation Pathways by a Cyclic γ-AA Peptide” (J Med Chem, 2022)
